These results are taken from patent US8173653B2, “Pyridiazinone derivatives for the treatment of tumours” (Merck Patent Gesellschaft MIT Beschraenkter Haftung, priority 2005, dated 2012).

This experiment has as its target T1, Met kinase (Homo sapiens, UniProt P08581).
T1 construct: 6His (N); purchased Upstate 14-526; host or cells: insect cells (Sf21; S. frugiperda), baculovirus
The experiment can be described thus: Met kinase inhibition (enzyme assay), flashplate method. The class given is biochemical. The method, then: Flashplate Method (Met Kinase)
The test plates used are 96-well Flashplate® microtitre plates from Perkin Elmer (Cat. No. SMP200). The components of the kinase reaction described below are pipetted into the assay plate. The Met kinase and the substrate poly Ala-Glu-Lys-Tyr, (PAGLT, 6:2:5:1), are incubated for 3 hrs at room temperature with radioactively labelled ^33P-ATP in the presence and absence of test substances in a total volume of 100 μl. The reaction is terminated using 150 μl of a 60 mM EDTA solution. After incubation for a further 30 min at room temperature, the supernatants are filtered off with suction, and the wells are washed three times with 200 μl of 0.9% NaCl solution each time. The measurement of the bound radioactivity is carried out by means of a scintillation measuring instrument (Topcount NXT, Perkin-Elmer).
The full value used is the inhibitor-free kinase reaction. This should be approximately in the range 6000-9000 cpm. The pharmacological zero value used is staurosporin in a final concentration of 0.1 mM. The inhibitory values (IC50) are determined using the RS1_MTS program.
Kinase reaction conditions per well: • 30 μl of assay buffer • 10 μl of substance to be tested in assay buffer with 10% of DMSO • 10 μl of ATP (final concentration 1 μM cold, 0.35 μCi of ^33P-ATP) • 50 μl of Met kinase/substrate mixture in assay buffer; (10 ng of enzyme/well, 50 ng of pAGLT/well)
Assay Buffer: • 50 mM HEPES • 3 mM magnesium chloride • 3 μM sodium orthovanadate • 3 mM manganese(II) chloride • 1 mM dithiothreitol (DTT) • pH=7.5 (to be set using sodium hydroxide)

T1 sequence (P08581 974-1390 limits assumed): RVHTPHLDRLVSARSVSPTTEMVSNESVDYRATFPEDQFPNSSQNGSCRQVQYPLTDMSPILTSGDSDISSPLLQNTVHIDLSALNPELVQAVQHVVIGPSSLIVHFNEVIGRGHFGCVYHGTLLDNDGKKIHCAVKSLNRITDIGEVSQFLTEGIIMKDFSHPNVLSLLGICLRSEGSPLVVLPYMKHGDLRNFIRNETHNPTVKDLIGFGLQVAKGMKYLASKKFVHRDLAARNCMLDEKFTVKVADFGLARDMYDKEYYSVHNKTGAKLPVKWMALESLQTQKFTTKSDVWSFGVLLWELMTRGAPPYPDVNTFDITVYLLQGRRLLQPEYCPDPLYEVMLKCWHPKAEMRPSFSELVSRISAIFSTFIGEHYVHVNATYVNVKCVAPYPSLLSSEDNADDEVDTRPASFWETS

For orientation: IC50 means the point on the concentration scale where inhibition reaches its midpoint. Higher therefore signals a need for much substance. With `CNCCCOC(=O)Nc1cccc(Cn2nc(-c3cc(F)cc(F)c3)ccc2=O)c1` [A142, 3-methylaminopropyl {3-[3-(3,5-difluorophenyl)-6-oxo-6H-pyridazin-1-ylmethyl]phenyl}carbamate], the IC50 lay in the range of 10 to 1000 nM.

For the molecule `COc1ccc(-c2ccc(=O)n(Cc3cccc(NC(C)=O)c3)n2)cc1OC` [A4], the IC50 fell in the range of 10 to 1000 nM.

`CCNC(=O)Nc1cccc(Cn2nc(-c3cccc(Cl)c3)ccc2=O)c1` [A20] had an IC50 of 10 to 1000 nM. Molecule `O=C(Nc1cccc(Cn2nc(-c3cc(F)cc(F)c3)ccc2=O)c1)OCCCN1CCCC1` [A74, 3-Pyrrolidin-1-ylpropyl {3-[3-(3,5-difluorophenyl)-6-oxo-6H-pyridazin-1-ylmethyl]phenyl}carbamate] had an IC50 of 10 to 1000 nM. The molecule `O=c1[nH]c2ccc(Cn3nc(-c4cc(F)cc(F)c4)ccc3=O)cc2[nH]1` [A169, 5-[3-(3,5-Difluorophenyl)-6-oxo-6H-pyridazin-1-ylmethyl]-1,3-dihydrobenzimidazol-2-one] had a half-inhibitory concentration (IC50) of 10 to 1000 nM. For the molecule `CCOC(=O)Nc1cccc(Cn2nc(-c3cccc(Br)c3)ccc2=O)c1` [A6], the IC50 lay within 10 to 1000 nM. In turn, `CCOC(=O)Nc1cccc(Cn2nc(-c3ccc(Cl)cc3)ccc2=O)c1` [A3, ethyl {3-[3-(4-chlorophenyl)-6-oxo-6H-pyridazin-1-ylmethyl]phenyl}carbamate] registered an IC50 of 10 to 1000 nM. As for `CN1CCCC1CCOC(=O)Nc1cccc(Cn2nc(-c3cc(F)cc(F)c3)ccc2=O)c1` (stereo not shown) [A105, 2-(1-Methylpyrrolidin-2-yl)ethyl {3-[3-(3,5-difluorophenyl)-6-oxo-6H-pyridazin-1-ylmethyl]phenyl}carbamate], the concentration for half-maximal inhibition (IC50) lay in the range of 10 to 1000 nM.

For the molecule `CN(C)CCCOC(=O)Nc1cccc(Cn2nc(-c3cccc(C#N)c3)ccc2=O)c1` [A61, 3-Dimethylaminopropyl {3-[3-(3-cyanophenyl)-6-oxo-6H-pyridazin-1-ylmethyl]phenyl}carbamate], the concentration for half-maximal inhibition (IC50) was 10 to 1000 nM.

`O=c1ccc(-c2ccc(F)cc2)nn1Cc1ccc2c(c1)OCO2` [A12] registered an IC50 of 10 to 1000 nM.

On to `CN1CCN(CCCOC(=O)Nc2cccc(Cn3nc(-c4cc(F)c(F)c(F)c4)ccc3=O)c2)CC1` [A101, 3-(4-Methylpiperazin-1-yl)propyl {3-[6-oxo-3-(3,4,5-trifluorophenyl)-6H-pyridazin-1-ylmethyl]phenyl}carbamate], for which the IC50 lay in the range of 10 to 1000 nM. Then `CN(C)CCCOC(=O)Nc1cccc(Cn2nc(-c3cccc(Cl)c3)ccc2=O)c1` [A17], with 10 to 1000 nM; and `CCN(CC)CCCOC(=O)Nc1cccc(Cn2nc(-c3cc(F)cc(F)c3)ccc2=O)c1` [A109, 3-Diethylaminopropyl {3-[3-(3,5-difluorophenyl)-6-oxo-6H-pyridazin-1-ylmethyl]phenyl}carbamate], with 10 to 1000 nM. The molecule `O=c1ccc(-c2cc(F)cc(F)c2)nn1Cc1ccc2[nH]ncc2c1` [A161, 6-(3,5-difluorophenyl)-2-(1H-indazol-5-ylmethyl)-2H-pyridazin-3-one] displayed a half-maximal inhibitory concentration (IC50) of 10 to 1000 nM. `CCOC(=O)Nc1cccc(Cn2nc(-c3cccc(F)c3)ccc2=O)c1` [A38] registered an IC50 of 10 to 1000 nM. Then `O=C(Nc1cccc(Cn2nc(-c3cc(F)c(F)c(F)c3)ccc2=O)c1)OCCN1CCOCC1` [A95, 2-Morpholin-4-ylethyl {3-[6-oxo-3-(3,4,5-trifluorophenyl)-6H-pyridazin-1-ylmethyl]phenyl}carbamate], with 10 to 1000 nM; and `CCNC(=O)Nc1cccc(Cn2nc(-c3ccc(F)cc3)ccc2=O)c1` [A18, 1-ethyl-3-{3-[3-(4-fluorophenyl)-6-oxo-6H-pyridazin-1-ylmethyl]phenyl}urea], with 10 to 1000 nM. With `O=C(Nc1cccc(Cn2nc(-c3cccs3)ccc2=O)c1)OCCCN1CCOCC1` [A71, 3-Morpholin-4-ylpropyl [3-(6-oxo-3-thiophen-2-yl-6H-pyridazin-1-ylmethyl)phenyl]carbamate], the IC50 was 10 to 1000 nM. Turning to `O=C(Nc1cccc(Cn2nc(-c3cc(F)cc(F)c3)ccc2=O)c1)OCC1CCNCC1` [A156, Piperidin-4-ylmethyl {3-[3-(3,5-difluorophenyl)-6-oxo-6H-pyridazin-1-ylmethyl]phenyl}carbamate], the IC50 is 10 to 1000 nM. `CN(C)CCCCOC(=O)Nc1cccc(Cn2nc(-c3cc(F)cc(F)c3)ccc2=O)c1` [A110, 4-Dimethylaminobutyl {3-[3-(3,5-difluorophenyl)-6-oxo-6H-pyridazin-1-ylmethyl]phenyl}carbamate] returned an IC50 of 10 to 1000 nM.

With `CCOC(=O)Nc1cccc(Cn2nc(-c3cccs3)ccc2=O)c1` [A19], the IC50 lay in the range of 10 to 1000 nM. The molecule `CC(=O)Nc1cccc(Cn2nc(-c3cccc(O)c3)ccc2=O)c1` [A2, N-{3-[3-(3-hydroxyphenyl)-6-oxo-6H-pyridazin-1-ylmethyl]phenyl}acetamide] displayed a half-inhibitory concentration (IC50) of 10 to 1000 nM. In turn, `O=C(Nc1cccc(Cn2nc(-c3cc(F)c(F)c(F)c3)ccc2=O)c1)OCCCN1CCOCC1` [A78, 3-Morpholin-4-ylpropyl {3-[6-oxo-3-(3,4,5-trifluorophenyl)-6H-pyridazin-1-ylmethyl]phenyl}carbamate] returned an IC50 of 10 to 1000 nM. Then `CCOC(=O)Nc1cccc(Cn2nc(-c3ccccc3)ccc2=O)c1` [A9], with 10 to 1000 nM; and `CN(C)CCCOC(=O)Nc1cccc(Cn2nc(-c3ccc(Cl)cc3)ccc2=O)c1` [A15, 3-dimethylaminopropyl {3-[3-(4-chlorophenyl)-6-oxo-6H-pyridazin-1-ylmethyl]phenyl}carbamate], with 10 to 1000 nM. Turning to `CC(=O)Nc1cccc(Cn2nc(-c3ccc(F)cc3)ccc2=O)c1` [A7], the IC50 lay in the range of 10 to 1000 nM. Then `CCOC(=O)Nc1cccc(Cn2nc(-c3ccc(F)cc3)ccc2=O)c1` [A5], with 10 to 1000 nM; and `CN1CCN(CCOC(=O)Nc2cccc(Cn3nc(-c4ccc(F)c(F)c4)ccc3=O)c2)CC1` [A92, 2-(4-Methylpiperazin-1-yl)ethyl {3-[3-(3,4-difluorophenyl)-6-oxo-6H-pyridazin-1-ylmethyl]phenyl}carbamate], with 10 to 1000 nM; and `O=c1[nH]c2ccc(Cn3nc(-c4cccc(F)c4)ccc3=O)cc2[nH]1` [A127, 5-[3-(3-fluorophenyl)-6-oxo-6H-pyridazin-1-ylmethyl]-1,3-dihydrobenzimidazol-2-one], with 10 to 1000 nM. `O=C(Nc1cccc(Cn2nc(-c3cc(F)cc(F)c3)ccc2=O)c1)OCCN1CCNCC1` [A143, 2-Piperazin-1-ylethyl {3-[3-(3,5-difluorophenyl)-6-oxo-6H-pyridazin-1-ylmethyl]phenyl}carbamate] gave an IC50 of 10 to 1000 nM. Then `N#Cc1cccc(-c2ccc(=O)n(Cc3cccc(NC(=O)OCCCN4CCOCC4)c3)n2)c1` [A88, 3-Morpholin-4-ylpropyl{3-[3-(3-cyanophenyl)-6-oxo-6H-pyridazin-1-ylmethyl]phenyl}carbamate], with 10 to 1000 nM; and `CN1CCN(CCCCOC(=O)Nc2cccc(Cn3nc(-c4cc(F)cc(F)c4)ccc3=O)c2)CC1` [A103, 4-(4-Methylpiperazin-1-yl)butyl {3-[3-(3,5-difluorophenyl)-6-oxo-6H-pyridazin-1-ylmethyl]phenyl}carbamate], with 10 to 1000 nM. Consider `CCOC(=O)Nc1cccc(Cn2nc(-c3cccc(Cl)c3)ccc2=O)c1` [A10], for which the half-inhibitory concentration (IC50) was in the range of 10 to 1000 nM.

The molecule `CNCCCCOC(=O)Nc1cccc(Cn2nc(-c3cc(F)cc(F)c3)ccc2=O)c1` [A155, 4-Methylaminobutyl {3-[3-(3,5-difluorophenyl)-6-oxo-6H-pyridazin-1-ylmethyl]phenyl}carbamate] showed an IC50 of 10 to 1000 nM. As to `CN1CCN(CCCOC(=O)Nc2cccc(Cn3nc(-c4cccc(C#N)c4)ccc3=O)c2)CC1` [A107, 3-(4-Methylpiperazin-1-yl)propyl {3-[3-(3-cyanophenyl)-6-oxo-6H-pyridazin-1-ylmethyl]phenyl}carbamate], the concentration for half-maximal inhibition (IC50) is 10 to 1000 nM. Consider `O=c1ccc(-c2ccc(F)cc2)nn1Cc1ccc2nsnc2c1` [A14], for which the IC50 lay in the range of 10 to 1000 nM. Molecule `CN1CCCC(COC(=O)Nc2cccc(Cn3nc(-c4cc(F)cc(F)c4)ccc3=O)c2)C1` (stereo not shown) [A106, 1-Methylpiperidin-3-ylmethyl {3-[3-(3,5-difluorophenyl)-6-oxo-6H-pyridazin-1-ylmethyl]phenyl}carbamate] came in with an IC50 of 10 to 1000 nM. On to `O=C(Nc1cccc(Cn2nc(-c3cc(F)cc(F)c3)ccc2=O)c1)OCCCN1CCNCC1` [A145, 3-Piperazin-1-ylpropyl {3-[3-(3,5-difluorophenyl)-6-oxo-6H-pyridazin-1-ylmethyl]phenyl}carbamate], for which the IC50 lay in the range of 10 to 1000 nM. With `O=C(Nc1cccc(Cn2nc(-c3ccc(F)c(F)c3)ccc2=O)c1)OCCN1CCOCC1` [A81, 2-Morpholin-4-ylethyl {3-[3-(3,4-difluorophenyl)-6-oxo-6H-pyridazin-1-ylmethyl]phenyl}carbamate], the IC50 is 10 to 1000 nM.

`COCCCOC(=O)Nc1cccc(Cn2nc(-c3cc(F)cc(F)c3)ccc2=O)c1` [A75, 3-Methoxypropyl {3-[3-(3,5-difluorophenyl)-6-oxo-6H-pyridazin-1-ylmethyl]phenyl}carbamate] gave an IC50 of 10 to 1000 nM.
